According to US20250353841A1 (BIOGEN MA INC., priority 2022, published 2025):

tested on: mutant Huntington (HTT) protein; test: HTT Mutant HTRF iPSC assay (mHTT protein lowering); assay type: cell-based; details: human iPSC derived from a HTT patient with a poly-Q49 mutation

Compound	IC50
Cc1cn2nc(-c3cc(F)c4nc(NC(=O)C5COC5)cn4c3)cc(C)c2n1 [Compound 256, N-(6-(2,8-dimethylimidazo[1,2-b]pyridazin-6-yl)-8-fluoroimidazo[1,2-a]pyridin-2-yl)oxetane-3-carboxamide]	100 to 1000 nM
Cc1cn2nc(-c3cc(F)c4nc([C@H]5C[C@@]6(CCNC6)C5)cn4c3)cc(C)c2n1 [Compound 193, 6-(8-fluoro-2-((2r,4r)-6-azaspiro[3.4]octan-2-yl)imidazo[1,2-a]pyridin-6-yl)-2,8-dimethylimidazo[1,2-b]pyridazine]	< 100 nM
Cc1cn2nc(-c3cc(F)c4nc(C5CCN(Cc6ncccn6)CC5)nn4c3)cc(C)c2n1 [Compound 441, 6-(2,8-dimethylimidazo[1,2-b]pyridazin-6-yl)-8-fluoro-2-(1-(pyrimidin-2-ylmethyl)piperidin-4-yl)-[1,2,4]triazolo[1,5-a]pyridine]	100 to 1000 nM
Cc1cn2cc(-c3cc(F)c4nc(CC5CCCNC5)cn4c3)cc(F)c2n1 (stereo not shown) [Compound 15, 8,8′-difluoro-2-methyl-2′-(piperidin-3-ylmethyl)-6,6′-biimidazo[1,2-a]pyridine]	100 to 1000 nM
Cn1cc2cc(-c3cc(F)c4nc(CC5CNC5)cn4c3)cc(F)c2n1 [Compound 19, 5-(2-(azetidin-3-ylmethyl)-8-fluoroimidazo[1,2-a]pyridin-6-yl)-7-fluoro-2-methyl-2H-indazole]	1000 to 9000 nM
Cc1cn2nc(-c3cc(F)c4nc(NC(=O)C5CCCN(C)C5)cn4c3)cc(C)c2n1 (single isomer, unassigned) [Compound 278]	< 100 nM
Cn1cc2cc(-c3cc(F)c4nc(C56CCNC(C5)C6)cn4c3)cc(F)c2n1 [Compound 75]	1000 to 9000 nM
Cc1cn2nc(-c3cc(F)c4[nH]c(C5C6CN(C)CC65)nc4c3)cc(C)c2n1 (stereo not shown) [Compound 430, 6-(7-fluoro-2-(3-methyl-3-azabicyclo[3.1.0]hexan-6-yl)-1H-benzo[d]imidazol-5-yl)-2,8-dimethylimidazo[1,2-b]pyridazine]	< 100 nM
CCC1(N(C)C)CCN(c2nc3c(F)cc(-c4cc(C)c5nc(C)cn5n4)cc3o2)CC1 [Compound 492, 1-(6-(2,8-dimethylimidazo[1,2-b]pyridazin-6-yl)-4-fluorobenzo[d]oxazol-2-yl)-4-ethyl-N,N-dimethylpiperidin-4-amine]	< 100 nM
Cn1nnc2ccc(-c3cc(F)c4nc(C5CCNCC5)cn4c3)cc21 [Compound 29, 6-(8-fluoro-2-(piperidin-4-yl)imidazo[1,2-a]pyridin-6-yl)-1-methyl-1H-benzo[d][1,2,3]triazole]	100 to 1000 nM
Cc1cn2nc(-c3cc(F)c4nc(C5CCN(C)CC5)cn4c3)cc2c(C)n1 [Compound 220, 2-(8-fluoro-2-(1-methylpiperidin-4-yl)imidazo[1,2-a]pyridin-6-yl)-4,6-dimethylpyrazolo[1,5-a]pyrazine]	< 100 nM
Cc1cn2nc(-c3cc(F)c4nc(C5CCN(C(=O)C6CC6)CC5)cn4c3)cc(C)c2n1 [Compound 121, cyclopropyl(4-(6-(2,8-dimethylimidazo[1,2-b]pyridazin-6-yl)-8-fluoroimidazo[1,2-a]pyridin-2-yl)piperidin-1-yl)methanone]	100 to 1000 nM
COc1cc(-c2cc(C)c3nc(C)nn3n2)cn2cc([C@H]3[C@@H]4CN(C)C[C@@H]43)nc12 [Compound 541, 6-(8-methoxy-2-((1R,5S,6r)-3-methyl-3-azabicyclo[3.1.0]hexan-6-yl)imidazo[1,2-a]pyridin-6-yl)-2,8-dimethyl-[1,2,4]triazolo[1,5-b]pyridazine]	100 to 1000 nM
Cc1cn2nc(-c3cc(F)c4nc(C(=O)NC5CCNC6(CC6)C5)cn4c3)cc(C)c2n1 (single isomer, unassigned) [Compound 348]	100 to 1000 nM
Cc1cn2nc(-c3cc(F)c4nc(C(=O)N(C)C5CCN(C)CC5)cn4c3)cc(C)c2n1 [Compound 332, 6-(2,8-dimethylimidazo[1,2-b]pyridazin-6-yl)-8-fluoro-N-methyl-N-(1-methylpiperidin-4-yl)imidazo[1,2-a]pyridine-2-carboxamide]	< 100 nM
Cc1cn2nc(-c3cc(F)c4nc(NC(=O)[C@H]5C[C@H](N(C)C)C5)cn4c3)cc(C)c2n1 [Compound 288, (1r,3r)-3-(dimethylamino)-N-(6-(2,8-dimethylimidazo[1,2-b]pyridazin-6-yl)-8-fluoroimidazo[1,2-a]pyridin-2-yl)cyclobutane-1-carboxamide]	< 100 nM
Cc1cn2nc(-c3cc(F)c4nc([C@@H]5CCCNC5)cn4c3)cc(C)c2n1 (single isomer, unassigned) [Compound 118]	< 100 nM
Cc1cn2nc(-c3cc(F)c4nc(C5CC6CCC(C5)N6)cn4c3)cc(C)c2n1 (stereo not shown) [Compound 206]	< 100 nM
Cc1nc2ccc(-c3ccc4nc([C@H]5[C@@H]6CN(C)C[C@@H]65)cn4c3)nn2n1 [Compound 553, 2-methyl-6-(2-((1R,5S,6r)-3-methyl-3-azabicyclo[3.1.0]hexan-6-yl)imidazo[1,2-a]pyridin-6-yl)-[1,2,4]triazolo[1,5-b]pyridazine]	100 to 1000 nM

Compound	IC50
Cc1cn2nc(-c3cc(F)c4nn(C5CCN(C6CC6)CC5)cc4c3)cc(C(F)F)c2n1 [Compound 354, 6-(2-(1-cyclopropylpiperidin-4-yl)-7-fluoro-2H-indazol-5-yl)-8-(difluoromethyl)-2-methylimidazo[1,2-b]pyridazine]	100 to 1000 nM
Cc1cc(-c2cc(F)c3[nH]c(C4CCNCC4)nc3c2)cc2cn(C)nc12 [Compound 142, 5-(7-fluoro-2-(piperidin-4-yl)-1H-benzo[d]imidazol-5-yl)-2,7-dimethyl-2H-indazole]	1000 to 9000 nM
Cc1cn2nc(-c3cc(F)c4nc([C@H]5[C@@H]6CN(C7CC7)C[C@@H]65)cn4c3)cc(C)c2n1 [Compound 204, 6-(2-((1R,5S,6r)-3-cyclopropyl-3-azabicyclo[3.1.0]hexan-6-yl)-8-fluoroimidazo[1,2-a]pyridin-6-yl)-2,8-dimethylimidazo[1,2-b]pyridazine]	100 to 1000 nM
Cc1cc2nc(-c3cc(F)c4nn(C5CCN(C)CC5)cc4c3)cc(C)n2n1 [Compound 360, 5-(7-fluoro-2-(1-methylpiperidin-4-yl)-2H-indazol-5-yl)-2,7-dimethylpyrazolo[1,5-a]pyrimidine]	100 to 1000 nM
COc1cc(-c2cc(F)c3nc(C)cn3c2)cc2cn(C3CCNCC3)nc12 [Compound 545, 5-(8-fluoro-2-methylimidazo[1,2-a]pyridin-6-yl)-7-methoxy-2-(piperidin-4-yl)-2H-indazole]	1000 to 9000 nM
COc1cc(-c2cc(C)c3nc(C)nn3c2)cc2cn(C3CCNCC3)nc12 [Compound 547, 6-(7-methoxy-2-(piperidin-4-yl)-2H-indazol-5-yl)-2,8-dimethyl-[1,2,4]triazolo[1,5-a]pyridine]	1000 to 9000 nM
Cc1nc2c(F)cc(-c3cc(F)c4nc(C5CCNCC5)cn4c3)cn2n1 [Compound 88, 8-fluoro-6-(8-fluoro-2-(piperidin-4-yl)imidazo[1,2-a]pyridin-6-yl)-2-methyl-[1,2,4]triazolo[1,5-a]pyridine]	100 to 1000 nM
Cc1cn2nc(-c3cc(F)c4nc(C5CCNCC5)cn4c3)cc(C3CC3)c2n1 [Compound 194, 8-cyclopropyl-6-(8-fluoro-2-(piperidin-4-yl)imidazo[1,2-a]pyridin-6-yl)-2-methylimidazo[1,2-b]pyridazine]	< 100 nM
Cc1cn2nc(-c3cc(F)c4nc([C@H]5C[C@@]6(CN[C@H](C)C6)C5)cn4c3)cc(C)c2n1 (single isomer, unassigned) [Compound 176, 6-(8-fluoro-2-((2S*,4r,7S*)-7-methyl-6-azaspiro[3.4]octan-2-yl)imidazo[1,2-a]pyridin-6-yl)-2,8-dimethylimidazo[1,2-b]pyridazine]	< 100 nM
Cc1cn2nc(-c3cc(F)c4nc(C5CC6(CNC6)C5)nn4c3)cc(C)c2n1 [Compound 442, 6-(2,8-dimethylimidazo[1,2-b]pyridazin-6-yl)-8-fluoro-2-(2-azaspiro[3.3]heptan-6-yl)-[1,2,4]triazolo[1,5-a]pyridine]	100 to 1000 nM
Cc1cn2nc(-c3cc(F)c4nc(NC(=O)C5(C)CNC5)cn4c3)cc(C)c2n1 [Compound 258, N-(6-(2,8-dimethylimidazo[1,2-b]pyridazin-6-yl)-8-fluoroimidazo[1,2-a]pyridin-2-yl)-3-methylazetidine-3-carboxamide]	< 100 nM
Cc1cn2nc(-c3cc(F)c4cn(C5CCNCC5)nc4c3)cc(C)c2n1 [Compound 135, 6-(4-fluoro-2-(piperidin-4-yl)-2H-indazol-6-yl)-2,8-dimethylimidazo[1,2-b]pyridazine]	100 to 1000 nM
Cc1cn2nc(-c3cc(F)c4nc([C@H]5[C@@H]6CN(C7CC(F)(F)C7)C[C@@H]65)cn4c3)cc(C)c2n1 [Compound 218, 6-(2-((1R,5S,6r)-3-(3,3-difluorocyclobutyl)-3-azabicyclo[3.1.0]hexan-6-yl)-8-fluoroimidazo[1,2-a]pyridin-6-yl)-2,8-dimethylimidazo[1,2-b]pyridazine]	100 to 1000 nM
Cc1cn2cc(-c3cc(F)c4nc(C5CCNCC5)oc4c3)cc(C)c2n1 [Compound 155, 6-(2,8-dimethylimidazo[1,2-a]pyridin-6-yl)-4-fluoro-2-(piperidin-4-yl)benzo[d]oxazole]	1000 to 9000 nM
Cc1cn2nc(-c3cc(F)c4nc(CC5CNCCO5)nn4c3)cc(C)c2n1 (stereo not shown) [Compound 446, 2-((6-(2,8-dimethylimidazo[1,2-b]pyridazin-6-yl)-8-fluoro-[1,2,4]triazolo[1,5-a]pyridin-2-yl)methyl)morpholine]	100 to 1000 nM
Cc1cn2cc(-c3cc(F)c4nc(C5CCNCC5)cn4c3)cc(C#N)c2n1 [Compound 42, 8′-fluoro-2-methyl-2′-(piperidin-4-yl)-[6,6′-biimidazo[1,2-a]pyridine]-8-carbonitrile]	1000 to 9000 nM
CN1CCC(N(C)C(=O)c2cn3cc(-c4cc(F)c5nn(C)cc5c4)cc(F)c3n2)CC1 [Compound 129, 8-fluoro-6-(7-fluoro-2-methyl-indazol-5-yl)-N-methyl-N-(1-methyl-4-piperidyl)imidazo[1,2-a]pyridine-2-carboxamide]	1000 to 9000 nM
CCOc1nccc2oc(-c3cc(F)c4nc(C5CCNCC5)cn4c3)cc12 [Compound 41, 4-ethoxy-2-(8-fluoro-2-(piperidin-4-yl)imidazo[1,2-a]pyridin-6-yl)furo[3,2-c]pyridine]	1000 to 9000 nM
